The results in this text go back to US20260265259A1, “SUBSTITUTED 6-IMIDAZOPYRIDAZINE IL-17A MODULATORS AND USES THEREOF” (DICE ALPHA, INC., priority 2023, published 2026).

In the experiment the test system is IL-17A/A. Description: IL-17A/A HEK-Blue cell assay. The settings on record: HEK-Blue, 20 h, IL-17A/A inhibition, HEK-Blue IL-17A reporter cell line, IL17A/A 5 ng/mL, SEAP read at A630, read-out: AA IC50. The experiment is classed as cell-based. In outline:
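HEK 293 reporter cells expressing IL-17RA, IL-17RC and Act1, stimulated with 5 ng/mL IL17A/A or IL17A/F for 20 h alongside compound (10 μM to 27 pM, 0.1% DMSO). NFκB-driven SEAP in the medium read at A630 with Quanti-Blue; IC50 from 4-parameter fit.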

pIC50: −log10 of the molar value. Bounds are passed on as bounds.

As usually defined, the pIC50 is −log10 of the IC50, conventionally taken in molar units. Regarding `CCn1nccc1C(=O)N[C@H](c1cn2nc(C[C@H]3C[C@@H](C(F)(F)F)CNC3=O)c(CN(C)C3COC3)cc2n1)C1CCC(F)(F)CC1` [Compound 114, N—((S)-(4,4-difluorocyclohexyl)(7-((methyl(oxetan-3-yl)amino)methyl)-6-(((3R,5R)-2-oxo-5-(trifluoromethyl)piperidin-3-yl)methyl)imidazo[1,2-b]pyridazin-2-yl)methyl)-1-ethyl-1H-pyrazole-5-carboxamide], the pIC50 is over 7.00. In the case of `CCn1nccc1C(=O)N[C@H](c1cn2nc(C[C@H]3C[C@@H](C(F)(F)F)CNC3=O)c(CNCC(F)(F)F)cc2n1)C1CCC(F)(F)CC1` [Compound 115, N—((S)-(4,4-difluorocyclohexyl)(6-(((3R,5R)-2-oxo-5-(trifluoromethyl)piperidin-3-yl)methyl)-7-(((2,2,2-trifluoroethyl)amino)methyl)imidazo[1,2-b]pyridazin-2-yl)methyl)-1-ethyl-1H-pyrazole-5-carboxamide], the negative logarithm of the IC50 (pIC50) was over 7.00. In the case of `CCn1nccc1C(=O)N[C@H](c1cn2nc(C[C@H]3C[C@@H](C(F)(F)F)CNC3=O)c(CN(C)CC(F)(F)F)cc2n1)C1CCC(F)(F)CC1` [Compound 116, N—((S)-(4,4-difluorocyclohexyl)(7-((methyl(2,2,2-trifluoroethyl)amino)methyl)-6-(((3R,5R)-2-oxo-5-(trifluoromethyl)piperidin-3-yl)methyl)imidazo[1,2-b]pyridazin-2-yl)methyl)-1-ethyl-1H-pyrazole-5-carboxamide] it was over 7.00; in that of `CCn1nccc1C(=O)N[C@H](c1cn2nc(C[C@H]3C[C@@H](C(F)(F)F)CNC3=O)c(CN(CC(F)(F)F)C3CC3)cc2n1)C1CCC(F)(F)CC1` [Compound 117, N—((S)-(7-((cyclopropyl(2,2,2-trifluoroethyl)amino)methyl)-6-(((3R,5R)-2-oxo-5-(trifluoromethyl)piperidin-3-yl)methyl)imidazo[1,2-b]pyridazin-2-yl)(4,4-difluorocyclohexyl)methyl)-1-ethyl-/H-pyrazole-5-carboxamide], over 7.00; in that of `CCn1nccc1C(=O)N[C@H](c1cn2nc(C[C@H]3C[C@@H](C(F)(F)F)CNC3=O)c(C3CCS(=O)(=O)CC3)cc2n1)C1CCC(F)(F)CC1` [Compound 118, N—((S)-(4,4-difluorocyclohexyl)(7-(1,1-dioxidotetrahydro-2H-thiopyran-4-yl)-6-(((3R,5R)-2-oxo-5-(trifluoromethyl)piperidin-3-yl)methyl)imidazo[1,2-b]pyridazin-2-yl)methyl)-1-ethyl-1H-pyrazole-5-carboxamide], over 7.00.
